Assay results: US9113629B2, “4-amino-6-(4-substituted-phenyl)-picolinates and 6-amino-2-(4-substituted-phenyl)-pyrimidine-4-carboxylates and their use as herbicides” (DOW AGROSCIENCES LLC, priority 2013, dated 2015)
Where two headings read alike, the source gives them in different places.

Tests used:
[1] = tested on: Key Broadleaf Weed and Crop Species; test: Post-emergent Test II herbicidal activity (Table 5); assay type: in vivo; settings: post-emergence, 336 h, 14 days after application; for pest or weed control at 70 g/ha: application rate 70 g ai/ha; for pest or weed control at 140 g/ha: application rate 140 g ai/ha
Outline: (§1)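 Visual injury ratings (0 = no injury, 100 = complete kill) were taken 14 d after treatment, relative to untreated plants. Seedlings at the first–second true leaf stage received overhead spray at 187 L/ha; the highest rate was serially diluted to ½×, ¼×, ⅛× and 1/16×.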

[2] = tested on: Key Grass and Sedge Weeds as well as Grass Crops; test: Post-emergent Test II herbicidal activity (Table 6); assay type: in vivo; settings: post-emergence, 336 h; for pest or weed control at 70 g/ha: 70 g ai/ha; for pest or weed control at 140 g/ha: 140 g ai/ha
Outline: as §1

[3] = ABUTH: velvetleaf (Abutilon theophrasti), read-out: Visual Growth Reduction (%) 14 Days After Application, ABUTH
[4] = AMARE: redroot pigweed (Amaranthus retroflexus), read-out: Visual Growth Reduction (%) 14 Days After Application, AMARE
[5] = BRSNN: oilseed-rape, canola (Brassica napus), read-out: Visual Growth Reduction (%) 14 Days After Application, BRSNN
[6] = CHEAL: lambsquarters (Chenopodium album), read-out: Visual Growth Reduction (%) 14 Days After Application, CHEAL
[7] = EPHHL: wild poinsettia (Euphorbia heterophylla), read-out: Visual Growth Reduction (%) 14 Days After Application, EPHHL
[8] = HELAN: sunflower (Helianthus annuus), read-out: Visual Growth Reduction (%) 14 Days After Application, HELAN
[9] = VIOTR: wild pansy (Viola tricolor), read-out: Visual Growth Reduction (%) 14 Days After Application, VIOTR
[10] = CYPES: yellow nutsedge (Cyperus esculentus), read-out: Visual Growth Reduction (%) 14 Days After Application, CYPES
[11] = DIGSA: crabgrass (Digitaria sanguinalis), read-out: Visual Growth Reduction (%) 14 Days After Application, DIGSA
[12] = ECHCG: barnyardgrass (Echinochloa crus-galli), read-out: Visual Growth Reduction (%) 14 Days After Application, ECHCG
[13] = ORYSA: rice (Oryza sativa), crop, read-out: Visual Growth Reduction (%) 14 Days After Application, ORYSA
[14] = SETFA: giant foxtail (Setaria faberi), read-out: Visual Growth Reduction (%) 14 Days After Application, SETFA
[15] = SORVU: grain sorghum (Sorghum vulgare), read-out: Visual Growth Reduction (%) 14 Days After Application, SORVU
[16] = TRZSS (wheat, Triticum aestivum), crop, read-out: Visual Growth Reduction (%) 14 Days After Application, TRZSS
[17] = ZEAMX: maize, corn (Zea mays), crop, read-out: Visual Growth Reduction (%) 14 Days After Application, ZEAMX

Nc1c(F)c(-c2ccc(Cl)c(F)c2)nc(C(=O)O)c1Cl [Compound 217]
159 to 161 °C: melting point
75 to 84%: pest or weed control at 140 g/ha [2, 13] | pest or weed control at 70 g/ha [2, 16] | pest or weed control at 140 g/ha [2, 16]
60 to 74%: pest or weed control at 70 g/ha [2, 13]
95 to 100%: pest or weed control at 70 g/ha [1, 3] | pest or weed control at 140 g/ha [1, 3] | pest or weed control at 70 g/ha [1, 4] | pest or weed control at 140 g/ha [1, 4] | pest or weed control at 140 g/ha [1, 5] | pest or weed control at 70 g/ha [1, 6] | pest or weed control at 140 g/ha [1, 6] | pest or weed control at 70 g/ha [1, 7] | pest or weed control at 140 g/ha [1, 7] | pest or weed control at 70 g/ha [1, 8] | pest or weed control at 140 g/ha [1, 8] | pest or weed control at 70 g/ha [1, 9] | pest or weed control at 140 g/ha [1, 9] | pest or weed control at 70 g/ha [2, 12] | pest or weed control at 140 g/ha [2, 12] | pest or weed control at 70 g/ha [2, 14] | pest or weed control at 140 g/ha [2, 14] | pest or weed control at 140 g/ha [2, 17]
85 to 94%: pest or weed control at 70 g/ha [1, 5] | pest or weed control at 70 g/ha [2, 10] | pest or weed control at 140 g/ha [2, 10] | pest or weed control at 70 g/ha [2, 11] | pest or weed control at 140 g/ha [2, 11] | pest or weed control at 70 g/ha [2, 15] | pest or weed control at 140 g/ha [2, 15] | pest or weed control at 70 g/ha [2, 17]
